Source: patent publication US9738668B2

Tests used:
[1] = test system: ABAD; assay type: biochemical
Procedure: Before the assay, all the assay components except SAAC were pre-incubated for 5 minutes, and the reaction started with the addition of SAAC into the reaction mix. The reaction was carried out for a total 6 minutes at room temperature under steady-state conditions, and the decrease of NADH absorbance at 340 nm was determined every 10 seconds. Kinetic data were analyzed by PRISM (Scitech, San Diego, Calif.) to determine IC50 values and Ki. One unit of enzyme activity was defined as that which converted 1.0 μmol of substrate to product per minute.

[2] = test system: brain mitochondria; assay: Mitochondria swelling assay in response to Ca2+; set-up: species or system mice
Procedure: Brain from mice without white matter was used for mitochondrial isolation. Brain was homogenized in 9 ml of ice-cold EB buffer (1 mmol EDTA, 1-6 mg/ml BSA) using a Dounce homogenizer until no particles could be seen. Homogenates were centrifuged at 1300×g for 5 minutes. Supernatant from this fraction was carefully laid on top of a 15% PERCOLL solution (10 ml) and then centrifuged at 16000 RPM for 10 minutes. The pellet was carefully mixed with 9 ml of mitochondrial buffer (4.098% D-mannitol, 2.56% sucrose, 0.034% K2HPO4, pH 7.3-7.4) and 200 μl of 1% digitonin. After 5 minutes incubation on ice, the mixture was centrifuged at 8000 RPM for 10 minutes. Mitochondrial pellet was washed once with mitochondrial buffer. Subsequently, the mitochondrial pellet was resuspended in 100 μl of mitochondrial buffer and was used for further experiments.
A proper amount of mitochondria was resuspended into 1 ml swelling assay buffer (150 mM KCl, 2 mM KH2PO4, 10 mM HEPES, pH 7.4) and energized by 1 mM glutamate and 1 mM malate. Calcium at varying concentrations was added into the assay buffer to trigger mitochondrial swelling. Mitochondrial permeability transition was determined by studying the rate of change in absorbance at 540 nm via a spectrophotometer.
Given that the Compounds 4, 8 and 15 could inhibit ABAD activity, it was determined whether these same compounds could decrease mitochondrial permeability transition pore (mPTP) formation.

[3] = test system: SK-N-SH cells; assay: Mitochondrial cytochrome c oxidase (CcO) activity in Aβ-treated cells; assay type: cell-based
Procedure: SK-NSH cells were treated with 5 μM oligomer Aβ plus 1 μM of ABAD inhibitor; inhibitor alone; vehicle (VEH) without inhibitor; or Aβ alone. Forty-eight hour later, CcO activity (μmol protein mg^−1 min^−1) was measured in cell lysates.
The CcO activity was measured according to known methods (Du, et al. (2008) Nat. Med. 14:1097-105) with a cytochrome c oxidase kit (Sigma). In brief, SK-N-SH cells were incubated with ABAD inhibitor and oligomer Aβ for 48 hours. After washing the cells twice with PBS, the cells were collected and concentration was determined by the Bradford method. A suitable volume of cells and enzyme solution was added to 475 μl assay buffer. The reaction was triggered by the addition of 25 μl freshly prepared ferrocytochrome C substrate solution into the cuvette. Changes in OD550 nm were recorded immediately with an Amersham Biosciences ULTROSPECT 3100 pro spectrophotometer.
To assess the effect of ABAD inhibitor on Aft-induced mitochondrial respiratory function, CcO activity was determined.

[4] = test system: SK-N-SH cells; assay: ATP levels in Aβ-treated cells; assay type: cell-based
Procedure: Forty-eight hour later, ATP levels (μmol mg^−1 protein) were measured in cell lysates.
To determine the effect of ABAD inhibitors on Aβ-induced impairment in energy metabolism, ATP levels were measured. […] ATP levels were measured in the cell lysates. […] Therefore, ABAD inhibitors can block mitochondrial dysfunction mediated by Aβ.

[5] = Solubility in solvents during LC method development; assay type: physicochemical
Procedure: During the development of a detection method for analytes 4, 8 and 15, multiple solvents were tested to find the optimal mobile phase. […] Acetonitrile was selected for better peak shape and compatibility with serum/brain protein precipitation. Compounds 8 and 15 were chosen as IS, because of their structural similarity. Selected reaction monitoring (SRM) acquisitions were used for sensitivity and extended dynamic range. The cone voltage and collision energy were optimized for 4, 8 and 15 and the IS by continuously infusing a mixture of the two. The optimum cone voltage was 30V.

[6] = Pharmacokinetic study and BBB penetration, LC-MS/MS of plasma and brain; assay type: in vivo, C57BL6 mice; details: mice, intravenous 10 mg/kg
Procedure: Using the validated LCMS/MS method, blood and brain levels of 4, 8, and 15 were measured in male and female C57BL6 mice (8-10 week-old, weighing approximately 25-30 grams). The mice were housed in a room with controlled temperature (23±3° C.) and moisture level (55±15% relative humidity) and exposed to a controlled 12 hour light/12 hour dark cycle. They were allowed to access to food and water ad libitum. Mice were fasted for 6 hours with free access to water prior to the pharmacokinetic study. To determine the time course of compounds 4, 8, and 15 action in the brain, the plasma pharmacokinetics and BBB penetration capability of the inhibitors were investigated. In these experiments, compounds 4, 8, and 15 were administered to mice by intravenous injection at a dosage of 10 mg/kg. Blood and brain samples were collected from mouse at each time point (2, 5, 10, 30, 60, 120, 240, 360, 720, 1440, and 2880 minutes), a total of 11 time points. For plasma measurements, blood (approximately 500-800 μl) was collected via cardiac-puncture into tubes containing sodium heparin anti-coagulant. Plasma was separated via centrifugation (4° C., 3500 rpm, 10 minutes) and stored in −80° C. freezer. For qualitative confirmations of these compounds in CSF, samples were collected at 2 time points (240 and 1440 min) from five animals at each time point. At the time of measurement, frozen plasma samples were thawed at room temperature and vortexed thoroughly. The following quantities were estimated using non-compartmental calculations performed with WINNONLIN 5.2 (Pharsight, Sunnyvale, Calif.): the area under the plasma concentration-time curve during the period of observation (AUC0-τ); the area under the plasma concentration-time curve from zero to infinity (AUC0-∞); the maximum plasma concentration (Cmax); the time to reach Cmax (Tmax); and the half-life (t1/2).
The LC-MS/MS method described above was used for the determination of 4, 8 and 15 in plasma, brain, and CSF for pharmacokinetic study. Based on the initial concentration data, the pharmacokinetic parameters including the area under the plasma concentration-time curve during the period of observation (AUC0-t), the area under the plasma concentration-time curve from zero to infinity (AUC0-∞) the maximum plasma concentration (Cmax) the time to reach Cmax (Tmax) and the half-life (t1/2) are shown in Table 8.

[7] = test system: Aβ-ABAD interaction; details: cited from earlier work
[8] = cited from earlier work

Molecule: COc1ccc2nc(N[C@@H](c3ccc(F)cc3)P(=O)(OC)OC)sc2c1 [Compound 15, Dimethyl ((4-fluorophenyl) ((6-methoxybenzo[d]thiazol-2-yl)amino)methyl) phosphonate]
- inhibition of SAAC reduction by ABAD ([1]; at 10 μM): did not inhibit
- inhibitory effect on SAAC reduction by ABAD ([1]; at 100 or 400 μM): slight inhibitory effect
- calcium-mediated mitochondrial swelling ([2]; with calcium): antagonized calcium-mediated mitochondrial swelling
- mitochondrial swelling without calcium ([2]; without calcium): did not affect mitochondrial swelling
- CcO activity, inhibitor alone ([3]; 1 μM inhibitor without Aβ): had no effect on CcO activity
- CcO activity ([3]; 5 μM oligomer Aβ1-42 plus 1 μM inhibitor, 48 hours): reversed the Aβ-mediated decrease of CcO activity
- ATP levels ([4]; 5 μM Aβ1-42 plus 1 μM inhibitor): rescued ATP levels
- ATP levels, inhibitor alone ([4]; inhibitor without Aβ): comparable to cells treated with vehicle alone
- solubility in methanol or acetonitrile ([5]; methanol or acetonitrile): dissolved readily
- solubility in water ([5]; water): dissolved partially
- t1/2 ([6]; Brain): 11.4 h
- t1/2 ([6]; Plasma): 6.1 h

Molecule: Nc1c(/N=N/c2ccc(-c3ccc(/N=N/c4cc(S(=O)(=O)O)c5ccccc5c4N)cc3)cc2)cc(S(=O)(=O)O)c2ccccc12 [Congo red]
- inhibition of Aβ binding [7]: 100%
- cell permeability [8]: poor cell permeability

Molecule: fentizole
- inhibitory activity [7]: exhibit inhibitory activity

Molecule: thioflavin T
- inhibition of Aβ binding [7]: ~20%
